From US20220411525A1, “BCMA AS A TARGET FOR T CELL REDIRECTING ANTIBODIES IN B CELL LYMPHOMAS” (Janssen Pharmaceutica NV, priority 2021, published 2022) come the findings set out here.

Data set [1] deals with T cells of healthy donor PBMCs. Kind of data set: T cell proliferation of healthy donor PBMCs co-cultured with cell lines. The format is cell-based, human. The note with it: co-culture of HD T cells with B cell malignancy cell lines, 4 days. On the procedure:
(§1) FIGS. 4A-4G provide the results of the assessment, which are that BCMAxCD3 DuoBody® induces activation, degranulation, cytokine secretion and cytotoxicity by T cells in the presence of B cell malignancy cell lines. PBMCs of healthy donors were left unstimulated or stimulated with 100 ng/mL BCMAxCD3 DuoBody®, BCMAxnull, nullxCD3 or anti-CD3/CD28 antibodies. Cells were left untreated (−) or treated with 100nM γ-secretase inhibitor (+). T cells were co-cultured with cell lines RPMI-8226 (multiple myeloma), JeKo-1 (mantle cell lymphoma), BCWM.1 (Waldenstrom's macroglobulinemia) or CII (chronic lymphocytic leukemia) in a 1:1 E:T ratio. After 48 hours activation by CD25 (FIG. 4A), degranulation (FIG. 4B), secretion of IFNy (FIG. 4D), IL-2 (FIG. 4E), TNFα (FIG. 4F), and cytotoxicity (FIG. 4G) were measured by flow cytometry (n=3-14). 4 days after incubation T cell proliferation was assessed by FACS (FIG. 4C) (n=3-9).
T cell proliferation. PBMCs from HD patients were labelled with CTV and cultured alone or in 1:1 E:T ratio with RPMI-8226, JeKo-1, CII or BCWM1. PBMCs were incubated in the presence of 100 ng/mL BCMAxCD3, BCMAxnull or nullxCD3 or stimulated with CD3 (clone 1XE) and CD28 (clone 15E8) antibodies. 100 nM γ-secretase inhibitor (Ly411575) was added where indicated. After 4 days proliferation was measured by flow cytometry as described above.

Data set [2] relates to autologous CLL cells. Kind of data set: Cytotoxicity assay, CLL derived T cells co-cultured with autologous CLL cells. It is filed as cell-based, human. The note with it: 96 h, 5:1 E:T. On the procedure:
(§2) It was also assessed whether Teclistamab would induce activation and cytotoxicity of CLL derived T cells. To assess activation and degranulation, full PBMCs of CLL patients were treated with 100 ng/mL Teclistamab or control BsAbs for 96 h with or without presence of γ-secretase inhibition. […] For FIGS. 6A-6, CLL PBMCs were stimulated with 100 ng/mL BCMAxCD3, BCMAxnull, nullxCD3 or anti-CD3/CD28 antibodies. Flow cytometry analysis of (FIG. 6A) CD25 and (FIG. 6B) CD107a were performed after 4 days (n=3-5). For FIG. 6C, T cells from CLL patients were isolated and co-cultured in a 5:1 E:T ratio with their autologous CLL for 96 h in the presence or absence of 100 ng/mL BCMAxCD3 DuoBody and were left untreated (−) or treated with 100 nM γ-secretase inhibitor (+). (n=6) The P value was calculated ordinary one-way ANOVA (FIGS. 6A-6B) or paired t test (FIG. 6C). Data are presented as mean±SD. *P<0.05; **P<0.01; ***P<0.001; ****P<0.0001.
(§3) Cytotoxicity assay. […] Viability of the target cells was assessed using TO-PRO-3 (Invitrogen) and MitoTracker Orange (Invitrogen) using Flow Cytometry. Specific lysis of target cells was calculated as (% target cell death in treated sample—% cell death target cells in medium control)/(100—% cell death target cells in medium control)*100%. […]

The subject of data set [3] is CLL derived T cells. Kind of data set: Activation and degranulation of CLL derived T cells in CLL PBMCs. It is filed as cell-based, human. The note with it: 96 h. On the procedure: as §2
(§4) Activation, cytokine production and degranulation. PBMCs from HD or CLL patients were incubated in the presence of 100 ng/mL BCMAxCD3, BCMAxnull or nullxCD3 or stimulated with CD3 (clone 1XE) and CD28 (clone 15E8) antibodies for 2 days. Where indicated HD PBMCs were co-cultured in a 1:1 E:T ratio with RPMI-8226, JeKo-1, CII or BCWM1. 100 nM γ-secretase inhibitor (Ly411575) was added where indicated. […]

In data set [4] the test system is B cell malignancy cell lines (RPMI-8226, JeKo-1, BCWM.1, CII). Kind of data set: Cytotoxicity assay, cell lines co-cultured with healthy donor PBMCs. It is filed as cell-based. On the procedure:
(§5) Since the different B cell malignancy cell lines express BCMA to different extents, it was explored whether co-culture of these cell lines with the BCMAxCD3 BsAb Teclistamab in presence of HD PBMCs would lead to activation of T cells. To assess this, 4 cell lines were selected based on previously determined BCMA levels: RPMI-8226 (MM, positive control; high BCMA), BCWM.1 (WM, high BCMA), CII (CLL, intermediate BCMA) and JeKo-1 (MCL, low BCMA). Cell lines and age-matched HD PBMCs were cultured in presence of 100 ng/mL Teclistamab or the control BsAbs (BCMAxnull or nullxCD3) with or without 100 nM γ-secretase inhibitor. As a positive control, anti-CD3/CD28 antibodies were added to the co-cultures to induce TCR stimulation.
as §1, §3

Data set [5] has as its system primary CLL cells. Kind of data set: Cytotoxicity assay, primary CLL cells co-cultured with healthy donor T cells. Conditions: for average lysis of CLL cells: 48 h; for average lysis of CLL cells / average cell death of CLL cells: 10:1 E:T, per T cell donor; for average cell death of CLL cells: 96h. The format is cell-based, human. As for the experimental part:
Since primary CLL samples express BCMA at even lower levels compared to JeKo-1 cell lines, the present inventors explored whether this expression level was still high enough to induce effective lysis of CLL cells. To assess this HD T cells were co-cultured for 48-96 h with primary CLL cells in the presence of 100 ng/mL of Teclistamab with or without 100 nM γ-secretase inhibitor.
FIGS. 5A-5C illustrate how healthy donor T cells kill primary CLL cells in presence of BCMAxCD3 DuoBody, which is largely dependent on CD8^+ T cells. Measurement of cytotoxicity after PBMCs of healthy donors were left unstimulated or stimulated with 100 ng/mL BCMAxCD3 DuoBody®, in the absence (−) or presence (+) of 100 nM γ-secretase inhibitor. PBMCs were T cells were co-cultured with primary CLL in a 10:1 E:T ratio for (FIG. 5A) 48 h or (FIG. 5B) 96 h. […] (n=8) The P value was calculated by Wilcoxon test (FIG. 5A), paired t test (FIG. 5B) or repeated measures one-way ANOVA (FIG. 5C). Data are presented as mean±SD. *P<0.05; **P<0.01; ***P<0.001.
Cytotoxicity assay. Cell lines or primary CLL samples were labelled with Cell Trace Violet (CTV, Thermo Fisher Scientific) or carboxyfluorescein diacetate succinimidyl ester (CFSE, ThermoFisher Scientific) according to manufacturer's instructions and co-cultured with healthy donor PBMCs or CLL derived (autologous) T cells in different effector-target (E:T) ratios. Where indicated prior to co-culture CD4 and CD8 T cells were isolated using MACS beads (Miltenyi), according to manufacturer's instructions. Co-cultures were in the presence of 100 ng/mL BCMAxCD3, BCMAxnull or nullxCD3. 100nM γ-secretase inhibitor (Ly411575) was added where indicated. Viability of the target cells was assessed using TO-PRO-3 (Invitrogen) and MitoTracker Orange (Invitrogen) using Flow Cytometry. Specific lysis of target cells was calculated as (% target cell death in treated sample—% cell death target cells in medium control)/(100—% cell death target cells in medium control)*100%. Samples were excluded when cell death in medium controls exceeded 50%.

In data set [6] the test system is T cells of healthy donor PBMCs. The experiment in a line: Activation, degranulation and cytokine production of healthy donor T cells co-cultured with B cell malignancy cell lines. The format is cell-based, human. On the procedure: as §5, §1, §4
Where [7] appears, read: 100 ng/mL plus 100 nM γ-secretase inhibitor.
Where [8] appears, read: 100 ng/mL, no γ-secretase inhibitor.
Setting [9] is: 100 ng/mL, with 100 nM γ-secretase inhibitor.

Several values for one entry are separate records, joined by “and”; a condition that tells them apart may be missing. Equal entries are not always repeated.

With “Teclistamab: BCMAxCD3 bispecific antibody developed with Genmab DuoBody technology, provided by Janssen Pharmaceuticals”, in data set [1], the T cell proliferation entry is “resulted in T cell activation, proliferation and cytotoxicity”. In data set [2] (setting [7]), the “lysis of autologous CLL cells upon addition of γ-secretase inhibition” value was “slightly increased”. Besides, in data set [2] (setting [8]), the “mean lysis of autologous CLL cells” value came out at 40%. In addition, the “CD25 activation in T cells of CLL patients upon addition of γ-secretase inhibitor” value in data set [3] (100 ng/mL plus γ-secretase inhibitor) was “enhanced”. The “CD25 activation in CD4+ and CD8+ T cells of CLL patients” value in data set [3] (100 ng/mL, CLL PBMCs) is given as “trend towards increased CD25 activation”. Further, the “cytotoxicity upon addition of γ-secretase inhibitor” value in data set [4] (setting [7]) is recorded as “did not improve”. Further, in data set [4] (100 ng/mL, JeKo-1 (low BCMA)), the “lysis of JeKo-1 compared to BCWM.1 or CII cell lines” value was “more efficiently lysed”. In addition, the “cell death of target cells” value in data set [4] (100 ng/mL, co-culture with HD T cells, 1:1 E:T, 48 hours) is listed as “induced cell death of target cells”. For the same substance, in data set [5] (setting [8]), the “average lysis of CLL cells” value is 12.9% and 16.4%; the “average cell death of CLL cells” value is 15.8% and 20%. In addition, in data set [5] (setting [9]), the “average lysis of CLL cells” value is 14.9% and 21.6%; the “average cell death of CLL cells” value is 25,8% and 27.4%. For the same substance, the “killing by HD CD4+ T cells” value in data set [5] (100 ng/mL, 96 h, 5:1 E:T, CD4+ T cells only) is given as “not able to induce killing”. The “lysis by HD CD8+ T cells” value in data set [5] (100 ng/mL, 96 h, 5:1 E:T, CD8+ T cells) is listed as “up to 60%”. Also, the “lysis of CLL cells by healthy donor T cells” value in data set [5] (summary statement, in presence of teclistamab) was “up to 40%”. In addition, in data set [6] (setting [7]), the “T cell activation and proliferation upon increasing BCMA levels by γ-secretase inhibition” value was “not further enhanced”. Moreover, the “activation marker CD25 on CD4+ and CD8+ T cells” value in data set [6] (100 ng/mL, 2 days co-culture with cell lines, 1:1 E:T) was “upregulation of the activation marker CD25”. In data set [6] (100 ng/mL, no target cell), the “CD25 on T cells, PBMCs cultured without a target cell” value was “did not lead to upregulation of CD25”.
